According to patent US12133541B2, “Feed composition comprising hexahydro-β-acid component compounds and application thereof” (WISORIG TECHNOLOGIES PTE. LIMITED, priority 2019, dated 2024):
“Also recorded” adds a separate entry of the source. Like-named read-outs stand apart in the source and are kept apart here.

Tests used:
[1] = Breeding experiment: production performance of hogs; format: in vivo, Duroc×Landrace×Yorkshire cross-bred bacon-type piglets; conditions: for ADFI (g/d per piglet) / ADG (g/d per piglet) / FCR: basal ration with 25 ppm of active ingredient; for ADFI (g/d per piglet) / ADG (g/d per piglet) / FCR / change rate of feed intake compared with the control group / change rate of weight gain compared with the control group / decrease rate of feed conversion ratio compared with the control group / animal production performance compared with the hexahydro-β-acids (in words): 14 days; for ADFI (g/d per piglet) / ADG (g/d per piglet): 67-day-old piglets; for FCR: feed intake/weight gain; for change rate of feed intake compared with the control group / change rate of weight gain compared with the control group / decrease rate of feed conversion ratio compared with the control group / animal production performance compared with the hexahydro-β-acids (in words) / average daily weight gain vs control (in words): piglets; for change rate of feed intake compared with the control group / change rate of weight gain compared with the control group / decrease rate of feed conversion ratio compared with the control group / animal production performance compared with the hexahydro-β-acids (in words): 25 ppm; for average daily weight gain vs control (in words): difference above 5% deemed obvious
Description: 240 67-day-old Duroc×Landrace×Yorkshire cross-bred bacon-type piglets with similar body weight, were randomly divided into 8 groups, with 3 replications per group, 10 piglets per replication and equal amount of males and females. The pig pen and tools were sterilized before the experiment. During the experiment, the piglets were kept in separate regions in the same pig pen under the same feeding and management conditions. The piglets were given ad libitum access to food and water, and feeds were provided twice every day. The groups were control group (group 1) and test groups 2 to 8, wherein piglets of the control group were given basal ration only, those of the test groups 2 to 8 were respectively given basal ration in combination with different additives with 25 ppm of active ingredient thereof, wherein the active ingredient was hexahydro-β-acids, or the hexahydro-β-acid compounds, or the coated substances of the hexahydro-β-acid compounds, as shown in Table 3.
During the entire process, each test group was not given other antioxidants or growth promoters. The experiment lasted for 14 days. On the 14th day, after withdrawing feed (without withdrawing water) for 12 hours, taking each replicate as one unit, the weight of each replication piglets was measured and each of average daily feed intake (ADFI, g/d per piglet), average daily weigh gain (ADG, g/d per piglet), and feed conversion ratio (FCR) was calculated. Average daily feed intake=(Total weight of provided feed−Weight of remaining feed)/(Number of days×Amount of piglets in each replicate) Average daily weight gain=(final average body weight−initial average body weight)/number of test days Feed conversion ratio=average daily feed intake/average daily weight gain

[2] = Stability testing at ambient temperature of feeds (HPLC); format: physicochemical; conditions: for Concentration (%) Day 5 / Concentration (%) Day 10: room temperature, day 0 = 100%
Description: Stability testing at ambient temperature: The samples were placed in a room-temperature environment. Samples were taken on day 5 and day 10 for HPLC analysis, and three replications were taken in parallel for each test sample.

[3] = Breeding experiment: production performance of broilers; format: in vivo, yellow broilers; conditions: 30 days; for ADFI (g/d per broiler) / ADG (g/d per broiler) / FCR: basal ration with 25 ppm of active ingredient; for ADFI (g/d per broiler) / ADG (g/d per broiler): 1-day-old yellow broilers; for FCR: feed intake/weight gain
Procedure: The experiment was conducted with single-factor randomized design. 720 1-day-old yellow broilers with a similar average body weight of 50 g, were randomly divided into 8 groups, with 6 replicates per group, equal amount of males and females and 15 yellow broilers per replicate. The chicken house and tools were sterilized before the experiment. During the experiment, the broilers were kept in separate regions in the same chicken house under the same feeding and management conditions. Basal ration mainly consisted of corn and soybean meal. During the entire process, each group was not given other antioxidants or growth promoters. The groups were control group (group 1) and test groups 2 to 8, wherein the control group was given basal ration only, while the test groups 2 to 8 were respectively given basal ration in combination with the different additives with 25 ppm of the active ingredient thereof, wherein the active ingredient was hexahydro-β-acids, or the hexahydro-β-acid compounds, or the coated substances of the hexahydro-β-acid compounds as shown in Table 4.
The experiment lasted for 30 days. The broilers were given ad libitum access to food and water, and feeds were provided twice every day. At the day when the broilers were 31-day old (after withdrawing feed for 12 hours, without withdrawing water), taking each replicate as one unit, body weight of the broilers was measured, and each of average daily feed intake (ADFI, g/d per broiler), average daily weigh gain (ADG, g/d per broiler), and feed conversion ratio (FCR) was calculated. Feed conversion ratio (FCR)=average daily feed intake/average daily weight gain

[4] = Thermal stability testing at 60° C. (HPLC); conditions: for Concentration (%) Day 5 / Concentration (%) Day 10: day 0 = 100%; for degradation ratio: 10-day testing period
Procedure: (§1) 50 mg of standard substance was accurately weighed out and dissolved in an appropriate amount of methanol by ultrasonication. The solution was then transferred to a 50 mL volumetric flask and diluted to volume with methanol to give a stock solution. Working solutions with concentration as 25 ppm, 125 ppm, 250 ppm, 500 ppm, and 1000 ppm were prepared respectively by the dilution of appropriate amount of the stock solution.
(§2) • Column: Symmetry C18 column (Waters; 250 mm*4.6 mm, 5 μm) • Mobile phase: 0.02% phosphoric acid:methanol=5:95 (v:v) • Wavelength: 223 nm • Column temperature: 25° C. • Injection volume: 10 μL • Flow rate: 1 mL/min
(§3) Thermal stability testing: The test samples were spread in petri dishes to form thin layers of ≤5 mm and placed in a drug stability testing chambers at 60° C. Samples were taken with 3 replications in parallel for each of test samples on day 5 and day 10 for HPLC analysis.

[5] = 10 day, 1 wt %
Procedure: as §1, §2, §3

[6] = component within feed comprising 25 ppm of hexahydro-β-acids
[7] = feed comprising 25 ppm of hexahydro-β-acid compound
[8] = 1% premix of hexahydro-β-acid compound
[9] = component within 1% premix of hexahydro-β-acids
[10] = component within hexahydro-β-acids
[11] = hexahydro-β-acid compound (free or coated substance)

Row | Compound | ADFI (g/d per piglet) [1] | ADG (g/d per piglet) [1] | FCR [1] | change rate of feed intake compared with the control group [1] | change rate of weight gain compared with the control group [1] | decrease rate of feed conversion ratio compared with the control group [1] | stability in feeds (in words) ([2]; ambient temperature) | Concentration (%) Day 5 [2, 6] | Concentration (%) Day 10 [2, 6] | ADFI (g/d per broiler) [3] | ADG (g/d per broiler) [3] | FCR [3] | change rate of feed intake compared with the control group ([3]; broilers, 25 ppm) | change rate of weight gain compared with the control group ([3]; broilers, 25 ppm) | decrease rate of feed conversion ratio compared with the control group ([3]; broilers, 25 ppm) | Concentration (%) Day 5 [4, 8] | Concentration (%) Day 10 [4, 8] | Concentration (%) Day 5 [4, 9] | Concentration (%) Day 10 [4, 9] | Concentration (%) Day 5 [4, 10] | also measured
1 | hexahydro-lupulone [reference compound] | 864 g/d per piglet | 358 g/d per piglet | 2.413 | −1.03% | 0% | 0.98% | very poor stability in feeds | 63.08% | 0% | 49.13 g/d per broiler | 23.58 g/d per broiler | 2.08 | −0.85% | 1.90% | 2.80% | 92.37% | 91.21% | 89.92% | 87.62% | 91.97% | decrease of active compound in feed ([2]; ambient temperature, 10-day period, feed with 25 ppm): 95%; Concentration (%) Day 5 [2, 7]: 17.78%; Concentration (%) Day 10 [2, 7]: 4.96%; degradation ratio ([4]; 1% premix of the compound): 8.8%; degradation ratio ([4]; compound or coated substance): 7.2%; Concentration (%) Day 10 [4, 10]: 79.62%; Concentration (%) Day 5 [4, 11]: 99.10%; Concentration (%) Day 10 [4, 11]: 92.85%
2 | hexahydro-adlupulone | 860 g/d per piglet | 368 g/d per piglet | 2.340 | 1.49% | 2.79% | 3.98% | excellent short-term stability; also recorded: favourable stability | 60.55% | 0% | 50.06 g/d per broiler | 24.59 g/d per broiler | 2.04 | 1.03% | 6.27% | 4.67% | 97.24% | 95.68% | 88.97% | 88.63% | 91.48% | animal production performance compared with the hexahydro-β-acids (in words) [1]: improve the animal production performance effectively; average daily weight gain vs control (in words) [1]: obvious increase; decrease in feed conversion ratio / feed efficiency (in words) ([3]; broilers, 25 ppm): more effective than hexahydro-β-acids; degradation ratio ([4]; 1% premix of the compound): 4.3%; Concentration (%) Day 10 [4, 10]: 82.87%; Concentration (%) Day 5 [4, 11]: 98.01%; Concentration (%) Day 10 [4, 11]: 96.63%
3 | CC(C)CCC1=C(O)C(C(=O)C(C)C)=C(O)C(CCC(C)C)(CCC(C)C)C1=O [Hexahydro-colupulone, hexahydro-colupulone] | 894 g/d per piglet | 403 g/d per piglet | 2.218 | 2.40% | 12.57% | 8.99% | excellent short-term stability; also recorded: favourable stability | 53.88% | 37.69% | 49.68 g/d per broiler | 25.19 g/d per broiler | 1.97 | 0.26% | 8.86% | 7.94% | 99.39% | 97.39% | 97.02% | 97.56% | 96.48% | degradation ratio [5]: 2.6%; animal production performance compared with the hexahydro-β-acids (in words) [1]: improve the animal production performance effectively; average daily weight gain vs control (in words) [1]: obvious increase; Concentration (%) Day 10 [4, 10]: 90.43%; decrease in the concentration ([4]; day 10, component within 1% premix of hexahydro-β-acids): about 2.4%; decrease in the concentration ([4]; day 10, component within hexahydro-β-acids): about 10%; Concentration (%) Day 5 [4, 11]: 99.76%; Concentration (%) Day 10 [4, 11]: 99.10%
